Data on 20 molecules can be found in patent US12084458B2, “Substituted pyridines, pyridazines, and pyrimidines as TYK2 inhibitors” (Sudo Biosciences Limited, priority 2021, dated 2024).

By IC50 is commonly meant the midpoint of a concentration-inhibition curve.

Experiment [1] concerns HEK-Blue IFNα/β cells (IFNα-stimulated STAT1 SEAP reporter; TYK2 JH2). As to the kind of experiment: HEK-Blue IFNα/β SEAP reporter assay for profiling TYK2 pseudokinase (JH2) inhibition. In kind it is cell-based. The arrangement: IFNα (TYK2 inhibitory activity, IC50): scale not given here. The settings on record: 1 ng/mL human recombinant IFNα; for IC50: Homo sapiens, HEK-Blue, read-out: IFNα (TYK2 inhibitory activity, IC50). How it is done:
(§1) Example B-1: HEK-Blue™ IL-23 and IFNα/β Reporter Assays for Profiling TYK2 Pseudokinase (JH2) Inhibition
(§2) HEK-Blue™ IL-23 and IFNα/β cells with a stably-integrated cytokine receptor and STAT3 or STAT1 express STAT-inducible secreted embryonic alkaline phosphatase (SEAP) reporter gene upon cytokine stimulation. These cells are plated in DMEM (Gibco) containing 10% heat-inactivated FBS (Gibco) and 100 U/mL PenStrep (Gibco) at 37° C. under 5% CO2 conditions for 20-22 hours. The cells are then pretreated with serially diluted test compounds for 60 min prior to stimulation with either 10 ng/mL human recombinant IL-23 (Miltenyl Biotech) or 1 ng/mL human recombinant IFNα (InvivoGen) for 22-24 hours for IL-23 or 16-18 h for IFNα. SEAP induction is measured using the QUANTI Blue™ Solution (InvivoGen) according to the manufacturer's instructions.
Background: Reporter assays use an easily measured gene product as a stand-in for the process of interest.

Experiment [2] concerns HEK-Blue IL-23 cells (IL-23-stimulated STAT3 SEAP reporter; TYK2 JH2). As to the kind of experiment: HEK-Blue IL-23 SEAP reporter assay for profiling TYK2 pseudokinase (JH2) inhibition. In kind it is cell-based. The settings on record: 10 ng/mL human recombinant IL-23, SEAP reporter, read-out: IL23 (TYK2 inhibitory activity, IC50). Here is the method: as §1, §2

Molecules are shown by their SMILES.

Consider `[2H]C([2H])([2H])NC(=O)c1nnc(NC(=O)C2CC2)cc1Nc1cccc2c1N(C)[C@H](C)c1nc(C)nn1-2` (single isomer, unassigned) [Compound 23], for which the IC50 in experiment [1] is 30 to 300 nM; in experiment [2], less than 30 nM.

With `[2H]C([2H])([2H])NC(=O)c1cnc(NC(=O)C2CC2)cc1Nc1cccc2c1N(C)[C@H](C)c1nc(C)nn1-2` (single isomer, unassigned) [Compound 24], the IC50 was 30 to 300 nM in experiment [1] and less than 30 nM in experiment [2].

Turning to `[2H]C([2H])([2H])NC(=O)c1cnc(NC(=O)C2CC2)cc1Nc1cccc2c1N(C)[C@H](C)c1nn(C)nc1-2` (single isomer, unassigned) [Compound 58], the figures for the IC50 in experiment [1] and in experiment [2] were 300 to 1000 nM and less than 30 nM, respectively.

Turning to `[2H]C([2H])([2H])NC(=O)c1nnc(NC(=O)C2CC2)cc1Nc1cccc2c1N(C)[C@H](C)c1nn(C)nc1-2` (single isomer, unassigned) [Compound 59], the IC50 in experiment [1] is 30 to 300 nM; in experiment [2], less than 30 nM.

For `[2H]C([2H])([2H])NC(=O)c1nnc(NC(=O)NC)cc1Nc1cccc2c1N(C)[C@H](C)c1nn(C)nc1-2` (single isomer, unassigned) [Compound 61], the IC50 in experiment [1] lay within 300 to 1000 nM; in experiment [2], 30 to 300 nM.

For `[2H]C([2H])([2H])NC(=O)c1nnc(NC(=O)NC)cc1Nc1nccc2c1N(C)[C@H](C)c1nn(C)nc1-2` (single isomer, unassigned) [Compound 99], the IC50 in experiment [1] and in experiment [2] was 30 to 300 nM in each case.

Regarding `[2H]C([2H])([2H])NC(=O)c1cnc(NC(=O)C2CC2)cc1Nc1cc(F)cc2c1N(C)[C@H](C)c1nc(C)nn1-2` (single isomer, unassigned) [Compound 106], the IC50 in experiment [1] is more than 1000 nM; in experiment [2], 30 to 300 nM.

In the case of `[2H]C([2H])([2H])NC(=O)c1nnc(NC(=O)C2CC2)cc1Nc1cc(F)cc2c1N(C)[C@H](C)c1nc(C)nn1-2` (single isomer, unassigned) [Compound 109], the figures for the IC50 in experiment [1] and in experiment [2] were 300 to 1000 nM and 30 to 300 nM, respectively.

For `CNC(=O)c1nnc(Nc2ccc(F)cn2)cc1Nc1cccc2c1OCc1nc(C)nn1-2` [Compound 2, 6-((5-fluoropyridin-2-yl)amino)-N-methyl-4-((2-methyl-4H-benzo[b][1,2,4]triazolo[1,5-d][1,4]oxazin-6-yl)amino)pyridazine-3-carboxamide], the half-inhibitory concentration (IC50) in experiment [1] and in experiment [2] was more than 1000 nM throughout.

For the molecule `CNC(=O)c1nnc(NC(=O)C2CC2)cc1Nc1cccc2c1OCc1nc(CO)nn1-2` [Compound 3, 6-(cyclopropanecarboxamido)-4-((2-(hydroxymethyl)-4H-benzo[b][1,2,4]triazolo[1,5-d][1,4]oxazin-6-yl)amino)-N-methylpyridazine-3-carboxamide], the IC50 in experiment [1] and in experiment [2] was more than 1000 nM in each case.

In the case of `[2H]C([2H])([2H])NC(=O)c1nnc(NC(=O)CN2CCOCC2)cc1Nc1cccc2c1N(C)Cc1nc(C)nn1-2` [Compound 9, 4-((2,5-dimethyl-4,5-dihydro-[1,2,4]triazolo[1,5-a]quinoxalin-6-yl)amino)-N-(methyl-d3)-6-(2-morpholinoacetamido)pyridazine-3-carboxamide], the “IFNα (TYK2 inhibitory activity, IC50)” value in experiment [1] is given as “C/D”. Also, the IC50 in experiment [2] was in the range of 30 to 300 nM.

Turning to `[2H]C([2H])([2H])NC(=O)c1nnc(NC(=O)CN(C)C)cc1Nc1cccc2c1N(C)Cc1nc(C)nn1-2` [Compound 14, 4-((2,5-dimethyl-4,5-dihydro-[1,2,4]triazolo[1,5-a]quinoxalin-6-yl)amino)-6-(2-(dimethylamino)acetamido)-N-(methyl-d3)pyridazine-3-carboxamide], the IC50 lay in the range of 300 to 1000 nM in experiment [1] and 30 to 300 nM in experiment [2].

Turning to `[2H]C([2H])([2H])NC(=O)c1nnc(Nc2cc(C)cc(C)c2)cc1Nc1cccc2c1N(C)Cc1nc(C)nn1-2` [Compound 16, 4-((2,5-dimethyl-4,5-dihydro-[1,2,4]triazolo[1,5-a]quinoxalin-6-yl)amino)-6-((3,5-dimethylphenyl)amino)-N-(methyl-d3)pyridazine-3-carboxamide], the “IFNα (TYK2 inhibitory activity, IC50)” value in experiment [1] is reported as “C/D”. For the same molecule, the IC50 in experiment [2] is 30 to 300 nM.

With `[2H]C([2H])([2H])NC(=O)c1nnc(NC(=O)C(C)C)cc1Nc1cccc2c1N(C)Cc1nc(C)nn1-2` [Compound 17, 4-((2,5-dimethyl-4,5-dihydro-[1,2,4]triazolo[1,5-a]quinoxalin-6-yl)amino)-6-isobutyramido-N-(methyl-d3)pyridazine-3-carboxamide], the 50% inhibitory concentration (IC50) was 300 to 1000 nM in experiment [1] and 30 to 300 nM in experiment [2].

Regarding `[2H]C([2H])([2H])NC(=O)c1nnc(NC(=O)CC(F)(F)F)cc1Nc1cccc2c1N(C)Cc1nc(C)nn1-2` [Compound 18, 4-((2,5-dimethyl-4,5-dihydro-[1,2,4]triazolo[1,5-a]quinoxalin-6-yl)amino)-N-(methyl-d3)-6-(3,3,3-trifluoropropanamido)pyridazine-3-carboxamide], the IC50 in experiment [1] was 300 to 1000 nM; in experiment [2], 30 to 300 nM.

For the molecule `[2H]C([2H])([2H])NC(=O)c1nnc(NC(=O)N(C)C)cc1Nc1cccc2c1N(C)Cc1nc(C)nn1-2` [Compound 20, 4-((2,5-dimethyl-4,5-dihydro-[1,2,4]triazolo[1,5-a]quinoxalin-6-yl)amino)-6-(3,3-dimethylureido)-N-(methyl-d3)pyridazine-3-carboxamide], the IC50 was more than 1000 nM in experiment [1] and 30 to 300 nM in experiment [2].

Turning to `[2H]C([2H])([2H])NC(=O)c1cnc(NC(=O)C2CC2)nc1Nc1cccc2c1N(C)Cc1nc(C)nn1-2` [Compound 21, 2-(cyclopropanecarboxamido)-4-((2,5-dimethyl-4,5-dihydro-[1,2,4]triazolo[1,5-a]quinoxalin-6-yl)amino)-N-(methyl-d3)pyrimidine-5-carboxamide], the IC50 in experiment [1] and in experiment [2] was 30 to 300 nM throughout.

`[2H]C([2H])([2H])NC(=O)c1nnc(NC(=O)C2(F)CC2)cc1Nc1cccc2c1N(C)Cc1nc(C)nn1-2` [Compound 37, 4-((2,5-dimethyl-4,5-dihydro-[1,2,4]triazolo[1,5-a]quinoxalin-6-yl)amino)-6-(1-fluorocyclopropane-1-carboxamido)-N-(methyl-d3)pyridazine-3-carboxamide]: the IC50 in experiment [1] was more than 1000 nM; in experiment [2], 30 to 300 nM.

As to `[2H]C([2H])([2H])NC(=O)c1nnc(NS(=O)(=O)C2CC2)cc1Nc1cccc2c1N(C)Cc1nc(C)nn1-2` [Compound 38, 6-(cyclopropanesulfonamido)-4-((2,5-dimethyl-4,5-dihydro-[1,2,4]triazolo[1,5-a]quinoxalin-6-yl)amino)-N-(methyl-d3)pyridazine-3-carboxamide], the IC50 in experiment [1] and in experiment [2] was more than 1000 nM throughout.

As to `[2H]C([2H])([2H])NC(=O)c1nnc(NC(=O)[C@@H]2CC2(F)F)cc1Nc1cccc2c1N(C)Cc1nc(C)nn1-2` [Compound 41, (S)-6-(2,2-difluorocyclopropane-1-carboxamido)-4-((2,5-dimethyl-4,5-dihydro-[1,2,4]triazolo[1,5-a]quinoxalin-6-yl)amino)-N-(methyl-d3)pyridazine-3-carboxamide], the IC50 in experiment [1] and in experiment [2] was 30 to 300 nM in each case.
